Where two headings read alike, the source gives them in different places. Where a SMILES comes first, the peptide text is derived from it. [ ]: non-standard residue; d: D form. NMeF = CN[C@@H](Cc1ccccc1)C(=O)O; NMeI = CC[C@H](C)[C@H](NC)C(=O)O; NMeV = CN[C@H](C(=O)O)C(C)C; NMeA = CN[C@@H](C)C(=O)O
What was measured:
[1] = system: Bacillus subtilis ATCC 6633; type: cell-based; conditions: ATCC 6633, 24 h
NCI-H460 = test: cells; set-up: MTT assay of cancer cell growth inhibition, absorbance at 580 nm; conditions: Homo sapiens, NCI-H460, 48 h
Method: (§1) Adherent cell SW620 (human colorectal carcinoma) and NCI-H460 (human lung carcinoma) cells were cultured in Roswell Park Memorial Institute (RPMI) 1640 medium. All cells were cultured as adherent mono-layers in flasks supplemented with 10% fetal bovine serum, L–glutamine (2 mM), penicillin (100 unit/mL), and streptomycin (100 μg/mL), in a humidified 37°C incubator supplied with 5% CO2. Briefly, cells were harvested with trypsin and dispensed into 96-well microtiter assay plates at 3,000 cells/well, after which they were incubated for 18 h at 37°C with 5% CO2 (to allow cells to attach as adherent mono-layers). Test compounds were dissolved in 20% DMSO in PBS (v/v) and aliquots (10 μL) applied to cells over a series of final concentrations ranging from 10 nM to 30 μM. After 48 h incubation at 37°C with 5% CO2 an aliquot (20 μL) of 3-(4,5-dimethylthiazol-2-yl)-2,5-diphenyltetrazolium bromide (MTT) in phosphate buffered saline (PBS, 5 mg/mL) was added to each well (final concentration 0.5 mg/mL), and microtiter plates were incubated for a further 4 h at 37°C with 5% CO2. After final incubation, the medium was aspirated and precipitated formazan crystals dissolved in DMSO (100 μL/well). The absorbance of each well was measured at 580 nm with a PowerWave XS Microplate Reader from Bio-Tek Instruments Inc. Where relevant, IC50 values were calculated using Prism 7.0, as the concentration of analyte required for 50% inhibition of cancer cell growth (compared to negative controls). Negative control was 1% aqueous DMSO, while positive control was doxorubicin (30 μM). All experiments were performed in duplicate.

SW620 = test: cells; set-up: MTT assay of cancer cell growth inhibition, absorbance at 580 nm; conditions: Homo sapiens, SW-620, 48 h
Method: as §1

In the case of `CC[C@H](C)[C@@H](C(=O)N[C@@H](CC(C)C)C(=O)O)N(C)C(=O)[C@H](Cc1ccccc1)N(C)C(=O)[C@H](C(C)C)N(C)C(=O)[C@H](C(C)C)N(C)C(=O)[C@@H]1CCCN1C(=O)[C@H](C(C)C)N(C)C(=O)[C@@H](NC(=O)[C@@H](NC(=O)[C@H](C(C)C)N(C)C(=O)[C@H](C)NC)C(C)C)[C@@H](C)O` [compound 2, talaropeptide A] (H-[NMeA][NMeV]VT[NMeV]P[NMeV][NMeV][NMeF][NMeI]L-OH), the IC50 [1] is reported as 1.5 µM, the IC50 (NCI-H460; read-out: 2) is reported as > 30 µM and the IC50 (SW620; read-out: 2) is reported as > 30 µM.

In the case of `CC[C@H](C)[C@@H](C(=O)N[C@@H](CC(C)C)C(=O)O)N(C)C(=O)[C@H](Cc1ccccc1)N(C)C(=O)[C@H](C(C)C)N(C)C(=O)[C@H](C(C)C)N(C)C(=O)[C@@H]1CCCN1C(=O)[C@H](C(C)C)N(C)C(=O)[C@@H](NC(=O)[C@@H](NC(=O)[C@@H](NC(=O)[C@H](C(C)C)N(C)C(=O)[C@H](C)NC)C(C)C)[C@@H](C)O)C(C)C` [compound 3, talaropeptide B] (H-[NMeA][NMeV]VTV[NMeV]P[NMeV][NMeV][NMeF][NMeI]L-OH), the IC50 [1] is reported as 3.7 µM, the IC50 (NCI-H460; read-out: 3) is reported as > 30 µM and the IC50 (SW620; read-out: 3) is reported as > 30 µM.

For `CC[C@H](C)[C@@H](C(=O)N[C@@H](CC(C)C)C(=O)O)N(C)C(=O)[C@H](Cc1ccccc1)N(C)C(=O)[C@H](C(C)C)N(C)C(=O)[C@H](C(C)C)N(C)C(=O)[C@@H]1CCCN1C(=O)[C@H](C(C)C)N(C)C(=O)[C@@H](NC(=O)[C@@H](NC(=O)[C@H](C(C)C)N(C)C(=O)[C@H](C)N(C)C(C)=O)C(C)C)[C@@H](C)O` [compound 4, talaropeptide C] (Ac-[NMeA][NMeV]VT[NMeV]P[NMeV][NMeV][NMeF][NMeI]L-OH), the IC50 (NCI-H460; read-out: 4) was > 30 µM and the IC50 (SW620; read-out: 4) was > 30 µM.

For `CC[C@H](C)[C@@H](C(=O)N[C@@H](CC(C)C)C(=O)O)N(C)C(=O)[C@H](Cc1ccccc1)N(C)C(=O)[C@H](C(C)C)N(C)C(=O)[C@H](C(C)C)N(C)C(=O)[C@@H]1CCCN1C(=O)[C@H](C(C)C)N(C)C(=O)[C@@H](NC(=O)[C@@H](NC(=O)[C@@H](NC(=O)[C@H](C(C)C)N(C)C(=O)[C@H](C)N(C)C(C)=O)C(C)C)[C@@H](C)O)C(C)C` [compound 5, talaropeptide D] (Ac-[NMeA][NMeV]VTV[NMeV]P[NMeV][NMeV][NMeF][NMeI]L-OH), the IC50 (NCI-H460; read-out: 5) was > 30 µM and the IC50 (SW620; read-out: 5) was > 30 µM.

Source: paper PMC6131563, “Talaropeptides A-D: Structure and Biosynthesis of Extensively N-methylated Linear Peptides From an Australian Marine Tunicate-Derived Talaromyces sp” (Frontiers in Chemistry, 2018)
